Test results taken from patent US20230271933A1, “HETEROCYCLIC IMMUNOMODULATOR” (Beijing Innocare Pharma Tech Co., Ltd., priority 2020, published 2023).

Experiments:
[1] = test system: NCI-H929 human myeloma cells; experiment: Inhibition of the proliferation of NCI-H929 cells (luminescent cell viability, CTG); assay type: cell-based; details: Homo sapiens, NCI-H929, 144 h, 6 days, CellTiter-Glo
Experimental: The effect of the compounds of the present invention on the proliferation of NCI-H929 human myeloma cells was evaluated by using a luminescent cell viability test experiment.
The compound was dissolved and diluted to 5 mM in DMSO, and then serially diluted 4-fold in DMSO to a minimum concentration of 0.31 μM. Each concentration was further diluted 50-fold with RPMI 1640 medium (Thermo Fisher, Cat. No. 72400-047). If the IC50 value of the compound was relatively low, the initial concentration of the compound could be lowered.
NCI-H929 cells (Nanjing Cobioer, Cat. No. CBP60243) were cultured in RPMI 1640 complete medium [containing 10% FBS (GIBCO, Cat. No. 10099-141) and 100 units/mL penicillin-streptomycin (Thermo Fisher, Cat. No. 15140122)]. Cells (15000 cells/mL) were plated in 90 μL of the complete medium in a 96-well plate and cultured overnight, and then 10 μL of the compound solution was added into each well. The cells were cultured in an incubator at 37° C. and 5% CO2 for 6 days. Then the cell culture plate was taken out and balanced to room temperature according to the instruction of the CellTilter-Glo (CTG) kit (Promega, Cat. No. G7572). 50 μL CTG reagent was added for complete lysis, the plate was placed at room temperature for 10 minutes, and the luminescence signal was read with a microplate reader (EnVision, Perkin Elmer). The group containing 0.2% DMSO medium was used as 0% inhibition. The XLfit software was used to plot the compound inhibition curve and calculate the inhibitory IC50 value.

[2] = target: hERG potassium ion channel (Homo sapiens, UniProt Q12809); experiment: Blockade of the hERG potassium ion channel (whole cell patch clamp); assay type: cell-based; details: HEK293 cells stably overexpressing hERG, pH 7.4, tail current, read-out: The percentage of the inhibition to the hERG current at the solubility of 3 μM (n = 2)
hERG potassium ion channel, sequence (Q12809 whole entry): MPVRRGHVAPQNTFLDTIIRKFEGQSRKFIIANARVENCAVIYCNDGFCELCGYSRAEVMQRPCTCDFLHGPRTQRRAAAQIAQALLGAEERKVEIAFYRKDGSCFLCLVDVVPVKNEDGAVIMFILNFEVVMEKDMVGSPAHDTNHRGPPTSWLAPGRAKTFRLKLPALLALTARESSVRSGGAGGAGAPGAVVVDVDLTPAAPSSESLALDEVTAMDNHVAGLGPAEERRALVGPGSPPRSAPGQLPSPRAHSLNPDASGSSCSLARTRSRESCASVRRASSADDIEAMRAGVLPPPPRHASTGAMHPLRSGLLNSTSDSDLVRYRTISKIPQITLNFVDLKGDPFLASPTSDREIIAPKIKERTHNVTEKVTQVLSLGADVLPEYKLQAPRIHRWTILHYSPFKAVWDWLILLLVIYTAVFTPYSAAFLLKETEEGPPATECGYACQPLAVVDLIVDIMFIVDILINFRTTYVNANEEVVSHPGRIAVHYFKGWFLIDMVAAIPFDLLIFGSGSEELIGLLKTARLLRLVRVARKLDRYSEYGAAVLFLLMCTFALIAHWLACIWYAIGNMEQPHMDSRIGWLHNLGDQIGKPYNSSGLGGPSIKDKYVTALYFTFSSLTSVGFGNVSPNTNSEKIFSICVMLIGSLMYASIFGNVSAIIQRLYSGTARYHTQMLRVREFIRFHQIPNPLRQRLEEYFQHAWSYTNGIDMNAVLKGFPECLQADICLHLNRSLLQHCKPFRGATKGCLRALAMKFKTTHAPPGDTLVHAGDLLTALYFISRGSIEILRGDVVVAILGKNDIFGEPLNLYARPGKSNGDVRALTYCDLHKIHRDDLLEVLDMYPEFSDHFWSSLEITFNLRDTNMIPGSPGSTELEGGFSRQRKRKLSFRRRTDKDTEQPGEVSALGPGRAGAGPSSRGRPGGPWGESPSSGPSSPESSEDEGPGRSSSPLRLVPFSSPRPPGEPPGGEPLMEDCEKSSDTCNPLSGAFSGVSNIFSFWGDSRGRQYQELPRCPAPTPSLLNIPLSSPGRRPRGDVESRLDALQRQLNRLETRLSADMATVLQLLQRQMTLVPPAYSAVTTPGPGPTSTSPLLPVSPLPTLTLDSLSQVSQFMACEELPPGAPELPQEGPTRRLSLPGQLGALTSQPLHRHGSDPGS
Experimental: The effect of the compound of the present invention on possible arrhythmias was assessed by determining the blockade of the hERG potassium ion channel.
The experiment method was summarized as follows: • Extracellular fluid: 140 mM NaCl, 3.5 mM KCl, 1 mM MgCl2, 2 mM CaCl2, 10 mM D-glucose, 10 mM HEPES, 1.25 mM NaH2PO4, pH=7.4. • Electrode internal solution: 20 mM KCl, 115 mM K-aspartate, 1 mM MgCl2, 5 mM EGTA, 10 mM HEPES, 2 mM Na2-ATP, pH=7.2. • Compound solution: the compound to be tested was dissolved in DMSO and prepared into a stock solution having a concentration of 10 mM, then diluted into the concentration of 3 mM with DMSO, and then diluted into a solution having a concentration of 3 μM with the extracellular solution for subsequent use. • Cell culture: the HEK293 cell line with the stable hERG potassium channel overexpression (Creacell, Cat. No. A-0320) was cultured in a DMEM medium (Gibco, Cat. No. 11995-065) containing […] (Gibco, Cat. No. 1428478) and 0.8 mg/mL G418 (Amresco, Cat. No. E859-5G) at the culture temperature of 37° C. under the carbon dioxide concentration of […]. The spent medium was removed and the cells were washed once with PBS (Gibco, Cat. No. 1009-141). Then 1 mL TrypLE™ Express solution (Gibco, Cat. No. 12604021) was added and the cells were incubated at 37° C. […]. When the cells were detached from the bottom of the dish, 5 mL of complete medium preheated at 37° C. was added. The cell suspension was transferred to a sterile centrifuge tube and centrifuged at 1000 rpm for 5 minutes before cell collection. Cells were inoculated in 6 cm cell culture dishes at the cell inoculation volume of 2.5*10^5 per dish (final volume: 5 mL). Before the patch clamp detection experiment, 3*10^3 cells were plated on the cover slips, cultured in 24-well plates (final volume: 500 μL), and detected 18 hours later. • Voltage stimulation protocol by recording the whole-cell hERG potassium current with the whole cell patch clamp: after forming a whole-cell seal, the cell membrane voltage was clamped at −80 mV. The clamping voltage was depolarized from −80 mV to −50 mV and maintained for 0.5 seconds (as leakage current detection), then stepped to 30 mV and maintained for 2.5 seconds, then quickly returned to −50 mV and maintained for 4 seconds to excite the hERG channel tail current (Peak tail current), the hERG potassium current was recorded every other 10 seconds. Experiment data were collected with EPC-10 amplifier (HEKA) and stored in PatchMaster (HEKA v2x73) software. • Determination: A capillary glass tube (Sutter Instruments) was drawn into a recording electrode with a microelectrode drawing instrument (Sutter Instruments). The cell-loaded cover slip was removed from the 24-well plate placed in the incubator and then placed under an inverted microscope. […] In the whole-cell recording mode, the slow capacitance compensation was performed and the membrane capacitance and the series resistance were recorded, during which the leakage compensation was not applied. After the hERG tail current recorded with the whole cell was stabilized for 3-5 minutes, 8 mL of the compound-free extracellular fluid (blank control) and 8 mL of 3 μM solution of the compound to be tested were sequentially flowed through the recording bath with the gravity perfusion to act on the cells for 5 minutes (or to the current stabilization). The current detected for each cell in the compound-free extracellular fluid was served as its own control. […]

[3] = In vivo pharmacokinetic experiment in rats; details: male Sprague-Dawley rats, n = 3; for F: PO 5 mpk vs IV 1 mpk; for clearance / Vd / AUC(0-t) / Cmax: rat, plasma; for clearance / Vd: 1 mg/kg, IV 1 mpk; for Vd: read-out: VSS; for AUC(0-t) / Cmax: 5 mg/kg, PO 5 mpk
Experimental: The compound to be tested was dissolved in 5% DMA+20% Solutol+75% Saline vehicle to prepare a 0.5 mg/mL administration solution.
2 mL/kg of the administration solution was administered through the intravenous injection (IV) at a dose of 1 mg/kg to three fed male Sprague-Dawley rats, respectively. Blood samples were collected at 0.083, 0.25, 0.5, 1, 2, 4, 8 and 24 hours after administration. 10 mL/kg of the administration solution was administered by gavage (PO) at a dose of 5 mg/kg to other three fed male Sprague-Dawley rats, respectively. Blood samples were collected at 0.25, 0.5, 1, 2, 4, 8 and 24 hours after administration.
The concentration of the compound to be tested in plasma was obtained with the LC-MS/MS quantitative analysis with an API-4500 mass spectrometer, and the limit of quantitation (LOQ) for the plasma was 1 ng/mL.

| Compound | IC50 [1] [nM] | inhibition at 5 min, 3 µM [2] [%] | F [3] [%] | clearance [3] [mL/min/kg] | Vd [3] [L/kg] | AUC(0-t) [3] [ng·h/mL] | Cmax [3] [ng/mL] |
| --- | --- | --- | --- | --- | --- | --- | --- |
| C[C@H](c1ccc(COc2cccc3c2CN([C@H]2CCC(=O)NC2=O)C3=O)cc1)N1CCN(c2ccc(C#N)cc2F)CC1 [Compound 6, 4-(4-((R)-1-(4-(((2-((S)-2,6-dioxopiperidin-3-yl)-1-oxoisoindolin-4-yl)oxy)methyl)phenyl)ethyl)piperazin-1-yl)-3-fluorobenzonitrile] | 0.1 | 52 | 14 | 1 | 0.27 | 11800 | 1800 |
| C[C@H](c1ccc(COc2cccc3c2CN([C@H]2CCC(=O)NC2=O)C3=O)cc1)N1CCN(c2ccc(C#N)cn2)CC1 [Compound 16, 6-(4-((R)-1-(4-(((2-((S)-2,6-dioxopiperidin-3-yl)-1-oxoisoindolin-4-yl)oxy)methyl)phenyl)-ethyl)piperazin-1-yl)nicotinonitrile] | 0.1 | 58 | 27 | 5.2 | 0.56 | 4280 | 555 |
| C[C@H](c1ccc(COc2cccc3c2CN([C@H]2CCC(=O)NC2=O)C3=O)cc1)N1CCN(c2ccc(C#N)nc2)CC1 [Compound 21, 5-(4-((R)-1-(4-(((2-((S)-2,6-dioxopiperidin-3-yl)-1-oxoisoindolin-4-yl)oxy)methyl)phenyl)ethyl)piperazin-1-yl)-2-cyanopyridine] | 0.04 | 49 | 18 | 14 | 0.65 | 1010 | 318 |
| C[C@H](c1ccc(COc2cccc3c2CN([C@H]2CCC(=O)NC2=O)C3=O)cc1)N1CCN(c2ncc(C#N)cc2F)CC1 [Compound 22, 6-(4-((R)-1-(4-(((2-((S)-2,6-dioxopiperidin-3-yl)-1-oxoisoindolin-4-yl)oxy)methyl)phenyl)-ethyl)piperazin-1-yl)-5-fluoronicotinonitrile] | 0.6 | 20 | 30 | 2.2 | 0.36 | 13000 | 1440 |
